Source: the supplement of paper PMC10307832

What was measured:
Test in all cases: relative viability (nuclei count vs DMSO), 5 days (fraction); higher = more cells survive
H3255 = tested on: H3255
Summary of the method: (§1)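 Relative viability is defined as nuclei in treated wells over nuclei in vehicle wells. Duplicate plates were run and medians reported. Lung cancer cell lines in 1536-well plates were dosed by pin tool one day after seeding, with one drug or with a fixed anchor-drug dose plus five library-drug doses (not always all listed) in √10 steps, and nuclei were counted after 5 days.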

NCI-H727 = tested on: NCI-H727
Summary of the method: as §1

LC-2-ad = tested on: LC-2-ad
Summary of the method: as §1

PC-3 [JPC-3] = tested on: PC-3 [JPC-3]
Summary of the method: as §1

NCI-H661 = tested on: NCI-H661
Summary of the method: as §1

NCI-H460 = tested on: NCI-H460
Summary of the method: as §1

NCI-H1650 = tested on: NCI-H1650
Summary of the method: as §1

NCI-H2023 = tested on: NCI-H2023
Summary of the method: as §1

NCI-H596 = tested on: NCI-H596
Summary of the method: as §1

LCLC-97TM1 = tested on: LCLC-97TM1
Summary of the method: as §1

ABC-1 = tested on: ABC-1
Summary of the method: as §1

CAL-12T = tested on: CAL-12T
Summary of the method: as §1

BEN = tested on: BEN
Summary of the method: as §1

NCI-H441 = tested on: NCI-H441
Summary of the method: as §1

NCI-H2087 = tested on: NCI-H2087
Summary of the method: as §1

201T = tested on: 201T
Summary of the method: as §1

NCI-H520 = tested on: NCI-H520
Summary of the method: as §1

NCI-H1651 = tested on: NCI-H1651
Summary of the method: as §1

NCI-H1915 = tested on: NCI-H1915
Summary of the method: as §1

NCI-H1944 = tested on: NCI-H1944
Summary of the method: as §1

NCI-H650 = tested on: NCI-H650
Summary of the method: as §1

A-427 = tested on: A-427
Summary of the method: as §1

O=c1cc(N2CCOCC2)oc2c(-c3cccc4c3sc3ccccc34)cccc12 + CS(=O)(=O)N1CCN(Cc2cc3nc(-c4cccc5[nH]ncc45)nc(N4CCOCC4)c3s2)CC1 [Pictilisib] (partner 1 µM)
relative viability (H3255; first compound 0.01 µM): 0.5 | relative viability (H3255; first compound 0.03162 µM): 0.513 | relative viability (H3255; first compound 0.1 µM): 0.48 | relative viability (H3255; first compound 0.3162 µM): 0.45 | relative viability (H3255; first compound 1 µM): 0.416 | relative viability (NCI-H727; first compound 0.01 µM): 0.587 | relative viability (NCI-H727; first compound 0.03162 µM): 0.355 | relative viability (NCI-H727; first compound 0.1 µM): 0.467 | relative viability (NCI-H727; first compound 0.3162 µM): 0.39 | relative viability (NCI-H727; first compound 1 µM): 0.266 | relative viability (LC-2-ad; first compound 0.01 µM): 0.39 | relative viability (LC-2-ad; first compound 0.1 µM): 0.578 | relative viability (LC-2-ad; first compound 0.3162 µM): 0.456 | relative viability (LC-2-ad; first compound 1 µM): 0.526 | relative viability (PC-3 [JPC-3]; first compound 0.01 µM): 0.751 | relative viability (PC-3 [JPC-3]; first compound 0.03162 µM): 0.747 | relative viability (PC-3 [JPC-3]; first compound 0.1 µM): 0.711 | relative viability (PC-3 [JPC-3]; first compound 0.3162 µM): 0.727 | relative viability (PC-3 [JPC-3]; first compound 1 µM): 0.739 | relative viability (NCI-H661; first compound 0.01 µM): 0.362 | relative viability (NCI-H661; first compound 0.03162 µM): 0.352 | relative viability (NCI-H661; first compound 0.1 µM): 0.376 | relative viability (NCI-H661; first compound 0.3162 µM): 0.409 | relative viability (NCI-H661; first compound 1 µM): 0.331 | relative viability (NCI-H460; first compound 0.01 µM): 0.403 | relative viability (NCI-H460; first compound 0.03162 µM): 0.342 | relative viability (NCI-H460; first compound 0.1 µM): 0.394 | relative viability (NCI-H460; first compound 0.3162 µM): 0.384 | relative viability (NCI-H460; first compound 1 µM): 0.319 | relative viability (NCI-H1650; first compound 0.03162 µM): 0.549 | relative viability (NCI-H1650; first compound 0.1 µM): 0.56 | relative viability (NCI-H1650; first compound 0.3162 µM): 0.504 | relative viability (NCI-H1650; first compound 1 µM): 0.514 | relative viability (NCI-H2023; first compound 0.01 µM): 0.306 | relative viability (NCI-H2023; first compound 0.03162 µM): 0.262 | relative viability (NCI-H2023; first compound 0.1 µM): 0.266 | relative viability (NCI-H2023; first compound 0.3162 µM): 0.275 | relative viability (NCI-H2023; first compound 1 µM): 0.245 | relative viability (NCI-H596; first compound 0.01 µM): 0.442 | relative viability (NCI-H596; first compound 0.03162 µM): 0.39 | relative viability (NCI-H596; first compound 0.1 µM): 0.38 | relative viability (NCI-H596; first compound 0.3162 µM): 0.395 | relative viability (NCI-H596; first compound 1 µM): 0.38 | relative viability (LCLC-97TM1; first compound 0.01 µM): 0.177 | relative viability (LCLC-97TM1; first compound 0.03162 µM): 0.271 | relative viability (LCLC-97TM1; first compound 0.3162 µM): 0.233 | relative viability (LCLC-97TM1; first compound 1 µM): 0.145 | relative viability (ABC-1; first compound 0.01 µM): 0.698 | relative viability (ABC-1; first compound 0.03162 µM): 0.834 | relative viability (ABC-1; first compound 0.1 µM): 0.745 | relative viability (ABC-1; first compound 0.3162 µM): 0.888 | relative viability (ABC-1; first compound 1 µM): 0.755 | relative viability (CAL-12T; first compound 0.01 µM): 0.368 | relative viability (CAL-12T; first compound 0.1 µM): 0.485 | relative viability (CAL-12T; first compound 0.3162 µM): 0.551 | relative viability (CAL-12T; first compound 1 µM): 0.326 | relative viability (BEN; first compound 0.01 µM): 0.593 | relative viability (BEN; first compound 0.03162 µM): 0.579 | relative viability (BEN; first compound 0.1 µM): 0.593 | relative viability (BEN; first compound 0.3162 µM): 0.655 | relative viability (BEN; first compound 1 µM): 0.535 | relative viability (NCI-H441; first compound 0.01 µM): 0.561 | relative viability (NCI-H441; first compound 0.03162 µM): 0.483 | relative viability (NCI-H441; first compound 0.1 µM): 0.487 | relative viability (NCI-H441; first compound 0.3162 µM): 0.438 | relative viability (NCI-H441; first compound 1 µM): 0.579 | relative viability (NCI-H2087; first compound 0.01 µM): 0.745 | relative viability (NCI-H2087; first compound 0.03162 µM): 0.861 | relative viability (NCI-H2087; first compound 0.1 µM): 0.851 | relative viability (NCI-H2087; first compound 0.3162 µM): 0.783 | relative viability (NCI-H2087; first compound 1 µM): 1 | relative viability (201T; first compound 0.01 µM): 0.698 | relative viability (201T; first compound 0.03162 µM): 0.67 | relative viability (201T; first compound 0.1 µM): 0.692 | relative viability (201T; first compound 0.3162 µM): 0.705 | relative viability (201T; first compound 1 µM): 0.661 | relative viability (NCI-H520; first compound 0.01 µM): 0.304 | relative viability (NCI-H520; first compound 0.03162 µM): 0.321 | relative viability (NCI-H520; first compound 0.1 µM): 0.282 | relative viability (NCI-H520; first compound 0.3162 µM): 0.305 | relative viability (NCI-H520; first compound 1 µM): 0.312 | relative viability (NCI-H1651; first compound 0.01 µM): 0.451 | relative viability (NCI-H1651; first compound 0.03162 µM): 0.642 | relative viability (NCI-H1651; first compound 0.1 µM): 0.636 | relative viability (NCI-H1651; first compound 0.3162 µM): 0.615 | relative viability (NCI-H1651; first compound 1 µM): 0.56 | relative viability (NCI-H1915; first compound 0.01 µM): 0.953 | relative viability (NCI-H1915; first compound 0.03162 µM): 0.975 | relative viability (NCI-H1915; first compound 0.1 µM): 1.08 | relative viability (NCI-H1915; first compound 0.3162 µM): 0.99 | relative viability (NCI-H1915; first compound 1 µM): 0.909 | relative viability (NCI-H1944; first compound 0.01 µM): 0.349 | relative viability (NCI-H1944; first compound 0.03162 µM): 0.336 | relative viability (NCI-H1944; first compound 0.1 µM): 0.349 | relative viability (NCI-H1944; first compound 0.3162 µM): 0.348 | relative viability (NCI-H1944; first compound 1 µM): 0.35 | relative viability (NCI-H650; first compound 0.01 µM): 0.907 | relative viability (NCI-H650; first compound 0.03162 µM): 1 | relative viability (NCI-H650; first compound 0.3162 µM): 0.896 | relative viability (NCI-H650; first compound 1 µM): 1.04 | relative viability (A-427; first compound 0.01 µM): 0.902 | relative viability (A-427; first compound 0.03162 µM): 0.8 | relative viability (A-427; first compound 0.1 µM): 0.68 | relative viability (A-427; first compound 0.3162 µM): 0.635 | relative viability (A-427; first compound 1 µM): 0.742
